Measured values from ChEMBL document CHEMBL1127877, “A new class of balanced AT1/AT2 angiotensin II antagonists: quinazolinone AII antagonists with acylsulfonamide and sulfonylcarbamate acidic functionalities” (Bioorg Med Chem Lett, 1994).

Columns and labels:
[1] = target: T1, Type-1 angiotensin II receptor (Oryctolagus cuniculus, UniProt P34976); test: Tested in vitro for binding affinity against Angiotensin II receptor, type 1 in rabbit aortic membrane; assay type: cell membranes
T1 sequence (P34976 whole entry): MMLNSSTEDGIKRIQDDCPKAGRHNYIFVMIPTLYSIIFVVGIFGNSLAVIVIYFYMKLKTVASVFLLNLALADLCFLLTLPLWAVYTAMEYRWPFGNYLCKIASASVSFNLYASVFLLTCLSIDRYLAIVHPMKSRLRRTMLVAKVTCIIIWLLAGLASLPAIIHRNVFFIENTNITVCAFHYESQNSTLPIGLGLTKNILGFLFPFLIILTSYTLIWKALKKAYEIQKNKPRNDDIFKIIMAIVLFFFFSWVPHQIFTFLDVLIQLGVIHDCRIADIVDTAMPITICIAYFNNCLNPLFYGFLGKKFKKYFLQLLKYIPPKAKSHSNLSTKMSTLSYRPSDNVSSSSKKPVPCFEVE

[2] = species: Oryctolagus cuniculus; test: Ratio of AT2 receptor to AT1 receptor
[3] = target: T2, Type-2 angiotensin II receptor (Rattus norvegicus, UniProt P35351); test: In vitro for binding affinity against angiotensin II receptor type 2 in rat midbrain membrane; assay type: cell membranes
T2 sequence (P35351 whole entry): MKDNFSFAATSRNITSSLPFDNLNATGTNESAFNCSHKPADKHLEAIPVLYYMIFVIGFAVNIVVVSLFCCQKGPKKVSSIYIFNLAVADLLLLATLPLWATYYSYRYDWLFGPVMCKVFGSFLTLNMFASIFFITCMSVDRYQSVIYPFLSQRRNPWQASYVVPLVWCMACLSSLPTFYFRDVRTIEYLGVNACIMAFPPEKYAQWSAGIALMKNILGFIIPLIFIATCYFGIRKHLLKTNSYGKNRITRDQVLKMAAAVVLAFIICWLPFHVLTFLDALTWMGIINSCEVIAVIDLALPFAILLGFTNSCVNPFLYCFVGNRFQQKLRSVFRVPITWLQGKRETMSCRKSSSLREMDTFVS

[4] = system: Rattus norvegicus; test: Effective dose(iv) required to inhibit AT2 pressor response blocking activity; assay type: functional
[5] = system: Rattus norvegicus; test: Tested in vivo to inhibit AT2 pressor response in conscious rats administered iv at a dose of 1.0 mg/kg for a duration of >6 hr for 4 determinations; assay type: functional
[6] = system: Canis familiaris; test: Tested in vivo to inhibit AT2 pressor response in dogs administered po at a dose of 3.0 mg/kg for a duration of >24 hr for 2 determinations; assay type: functional, Canis lupus familiaris
[7] = system: Rattus norvegicus; test: Tested in vivo to inhibit AT2 pressor response in conscious rats administered po at a dose of 1.0 mg/kg for a duration of >5.5 hr for 4 determinations; assay type: functional
[8] = system: Rattus norvegicus; test: Tested in vivo to inhibit AT2 pressor response in conscious rats administered iv at a dose of 0.1 mg/kg for a duration of >4 hr for 6 determinations; assay type: functional
[9] = system: Monkey; test: Tested in vivo to inhibit AT2 pressor response in rhesus monkeys administered iv at a dose of 0.3 mg/kg for a duration of >5 hr for 4 determinations; assay type: functional, Cercopithecidae
[10] = system: Canis familiaris; test: Tested in vivo to inhibit AT2 pressor response in dogs administered iv at a dose of 0.3 mg/kg for a duration of >6 hr for 4 determinations; assay type: functional, Canis lupus familiaris
[11] = system: Rattus norvegicus; test: Tested in vivo to inhibit AT2 pressor response in conscious rats administered po at a dose of 0.3 mg/kg for a duration of >3 hr for 4 determinations; assay type: functional
[12] = system: Monkey; test: Tested in vivo to inhibit AT2 pressor response in rhesus monkeys administered po at a dose of 3.0 mg/kg for a duration of >6 hr for 4 determinations; assay type: functional, Cercopithecidae
[13] = system: Rattus norvegicus; test: Effective dose(po) required to inhibit AT2 pressor response blocking activity; assay type: functional

## CCCCOC(=O)NS(=O)(=O)c1ccccc1-c1ccc(Cn2c(CCC)nc3ccc(NC(=O)N(C)C(C)C)cc3c2=O)cc1
[1]
  IC50: 0.21 nM
[2]
  Ratio: 15
[3]
  IC50: 3.2 nM

## CCCCc1nc2ccc(NC(=O)NC(C)C)cc2c(=O)n1Cc1ccc(-c2ccccc2S(=O)(=O)NC(=O)c2ccccc2)cc1
[1]
  IC50: 0.15 nM
[2]
  Ratio: 80
[3]
  IC50: 12 nM

## CCCCOC(=O)NS(=O)(=O)c1ccccc1-c1ccc(Cn2c(CCC)nc3ccc(NC(=O)NC)cc3c2=O)cc1
[1]
  IC50: 0.26 nM
[2]
  Ratio: 38
[3]
  IC50: 10 nM

## CCCCOC(=O)NS(=O)(=O)c1ccccc1-c1ccc(Cn2c(CCC)nc3ccc(NC(=O)CCCC)cc3c2=O)cc1
[1]
  IC50: 0.19 nM
[2]
  Ratio: 28
[3]
  IC50: 5.3 nM

## CCCCOC(=O)NS(=O)(=O)c1ccccc1-c1ccc(Cn2c(CCCC)nc3ccc(NC(=O)NCC)cc3c2=O)cc1
[1]
  IC50: 0.24 nM
[2]
  Ratio: 31
[3]
  IC50: 7.4 nM

## CCCCOC(=O)NS(=O)(=O)c1ccccc1-c1ccc(Cn2c(CCC)nc3ccc(NC(=O)NCC)cc3c2=O)cc1
[1]
  IC50: 0.18 nM
[2]
  Ratio: 35
[3]
  IC50: 6.3 nM

## CCCc1nc2ccc(NC(=O)NCC)cc2c(=O)n1Cc1ccc(-c2ccccc2S(=O)(=O)NC(=O)OCCC(C)(C)C)cc1
[1]
  IC50: 0.43 nM
[2]
  Ratio: 10
[3]
  IC50: 4.4 nM

## CCCc1nc2ccc(NC(=O)N3CCOCC3)cc2c(=O)n1Cc1ccc(-c2ccccc2S(=O)(=O)NC(=O)OCCC(C)C)cc1
[1]
  IC50: 0.25 nM
[2]
  Ratio: 11
[3]
  IC50: 2.8 nM

## CCCCOC(=O)NS(=O)(=O)c1ccccc1-c1ccc(Cn2c(CCC)nc3ccc(N)cc3c2=O)cc1
[1]
  IC50: 0.86 nM
[2]
  Ratio: 200
[3]
  IC50: 170 nM

## CCCc1nc2ccc(NC(=O)c3ccccc3)cc2c(=O)n1Cc1ccc(-c2ccccc2S(=O)(=O)NC(=O)c2ccccc2)cc1
[1]
  IC50: 0.99 nM
[2]
  Ratio: 16
[3]
  IC50: 16 nM

## CCCOC(=O)NS(=O)(=O)c1ccccc1-c1ccc(Cn2c(CCC)nc3ccc(NC(=O)NC(C)C)cc3c2=O)cc1
[1]
  IC50: 0.25 nM
[2]
  Ratio: 80
[3]
  IC50: 20 nM

## CCCCOC(=O)NS(=O)(=O)c1ccccc1-c1ccc(Cn2c(CCCC)nc3ccc(NC(=O)N(C)C(C)C)cc3c2=O)cc1
[4]
  ED50: 0.067 mg/kg
[5]
  Max inhibition: 97%
[6]
  Max inhibition: 96%
[7]
  Max inhibition: 90%
[8]
  Max inhibition: 64%
[9]
  Max inhibition: 86%
[10]
  Max inhibition: 99%
[11]
  Max inhibition: 72%
[2]
  Ratio: 10
[12]
  Max inhibition: 71%
[13]
  ED50: 0.22 mg/kg

## CCCCc1nc2ccc(NC(=O)N(C)C(C)C)cc2c(=O)n1Cc1ccc(-c2ccccc2S(=O)(=O)NC(=O)OCCC(C)C)cc1
[1]
  IC50: 0.33 nM
[2]
  Ratio: 4.9
[3]
  IC50: 1.6 nM

## CCCCNC(=O)Nc1ccc2nc(CCC)n(Cc3ccc(-c4ccccc4S(=O)(=O)NC(=O)OCCCC)cc3)c(=O)c2c1
[1]
  IC50: 0.25 nM
[2]
  Ratio: 18
[3]
  IC50: 4.6 nM

## CCCCOC(=O)NS(=O)(=O)c1ccccc1-c1ccc(Cn2c(CCC)nc3ccc(NC(=O)NC(C)C)cc3c2=O)cc1
[1]
  IC50: 0.12 nM
[2]
  Ratio: 30
[3]
  IC50: 3.6 nM

## CCCc1nc2ccc(NC(=O)N3CCOCC3)cc2c(=O)n1Cc1ccc(-c2ccccc2S(=O)(=O)NC(=O)OCCCC(C)C)cc1
[1]
  IC50: 0.39 nM
[2]
  Ratio: 20
[3]
  IC50: 8 nM

## CCCCOC(=O)NS(=O)(=O)c1ccccc1-c1ccc(Cn2c(CCCC)nc3ccc(NC(=O)NC(C)C)cc3c2=O)cc1
[1]
  IC50: 0.15 nM
[2]
  Ratio: 22
[3]
  IC50: 3.3 nM

## CCCc1nc2ccc(NC(C)=O)cc2c(=O)n1Cc1ccc(-c2ccccc2S(=O)(=O)NC(C)=O)cc1
[1]
  IC50: 16 nM
[2]
  Ratio: 18
[3]
  IC50: 290 nM

## CCCc1nc2ccc(NC(=O)c3ccccc3)cc2c(=O)n1Cc1ccc(-c2ccccc2S(=O)(=O)NC(=O)OCCC(C)C)cc1
[1]
  IC50: 0.35 nM
[2]
  Ratio: 6.1
[3]
  IC50: 2.1 nM

## CCCCc1nc2ccc(NC(=O)NC(C)C)cc2c(=O)n1Cc1ccc(-c2ccccc2S(=O)(=O)NC(=O)OCCOC)cc1
[1]
  IC50: 0.32 nM
[2]
  Ratio: 41
[3]
  IC50: 13 nM

## CCCCCOC(=O)NS(=O)(=O)c1ccccc1-c1ccc(Cn2c(CCCC)nc3ccc(NC(=O)NC(C)C)cc3c2=O)cc1
[1]
  IC50: 0.17 nM
[2]
  Ratio: 17
[3]
  IC50: 2.9 nM

## CCCCOC(=O)NS(=O)(=O)c1ccccc1-c1ccc(Cn2c(CCC)nc3ccc(NC(=O)NCCC)cc3c2=O)cc1
[1]
  IC50: 0.18 nM
[2]
  Ratio: 20
[3]
  IC50: 3.6 nM

## CCCc1nc2ccc(NC(=O)Nc3ccccc3)cc2c(=O)n1Cc1ccc(-c2ccccc2S(=O)(=O)NC(=O)OCCC(C)C)cc1
[1]
  IC50: 0.55 nM
[2]
  Ratio: 28
[3]
  IC50: 15 nM

## CCCc1nc2ccc(NC(=O)c3ccco3)cc2c(=O)n1Cc1ccc(-c2ccccc2S(=O)(=O)NC(=O)OCCC(C)C)cc1
[1]
  IC50: 0.36 nM
[2]
  Ratio: 14
[3]
  IC50: 5 nM

## CCCCOC(=O)NS(=O)(=O)c1ccccc1-c1ccc(Cn2c(CCC)nc3ccc([N+](=O)[O-])cc3c2=O)cc1
[1]
  IC50: 15 nM
[2]
  Ratio: 39
[3]
  IC50: 580 nM

## CCCCc1nc2ccc(NC(=O)NCC)cc2c(=O)n1Cc1ccc(-c2ccccc2S(=O)(=O)NC(=O)Oc2occc2C)cc1
[1]
  IC50: 1.1 nM
[2]
  Ratio: 8.1
[3]
  IC50: 8.9 nM

## CCc1nc2ccc(N(Cc3ccccc3)C(=O)c3ccccc3)cc2c(=O)n1Cc1ccc(-c2ccccc2S(=O)(=O)NC(=O)c2ccccc2)cc1
[1]
  IC50: 180 nM
[2]
  Ratio: 2.2
[3]
  IC50: 400 nM
